From patent publication US9949975B2, “Inhibitors of beta-secretase” (Vitae Pharmaceuticals, Inc., priority 2012, dated 2018)

Target: hERG channel (Homo sapiens (Human), UniProt Q12809)
Experiment: hERG-Channel Assay (Assay 3), whole-cell patch clamp
Format: cell-based
Settings: HEK293 cells transfected with hERG, 35° C.
Source text: HEK (human embryonic kidney) 293 cells were stably transfected with hERG cDNA.
Cells were superfused with a bath solution containing (mM): NaCl (137), KCl (4.0), MgCl2 (1.0), CaCl2 (1.8), Glucose (10), HEPES (10), pH 7.4 with NaOH. Patch pipettes were made from borosilicate glass tubing using a horizontal puller and filled with pipette solution containing (mM): K-aspartate (130), MgCl2 (5.0), EGTA (5.0), K2ATP (4.0), HEPES (10.0), pH 7.2 with KOH. Resistance of the microelectrodes was in the range between 2 and 5 MΩ.
Membrane currents were recorded using an EPC-10 patch clamp amplifier and PatchMaster software. hERG-mediated membrane currents were recorded at 35° C., using the whole-cell configuration of the patch-clamp technique. Transfected HEK293 cells were clamped at a holding potential of −60 mV and hERG-mediated inactivating tail currents were elicited using a pulse pattern with fixed amplitudes (activation/inactivation: 40 mV for 2000 ms; recovery: −120 mV for 2 ms; ramp to 40 mV in 2 ms; inactivating tail current: 40 mV for 50 ms) repeated at 15 s intervals. During each inter-pulse interval 4 pulses scaled down by a factor of 0.2 were recorded for a P/n leak subtraction procedure. Rs compensation was employed up to a level that safely allowed recording devoid of ringing.
The different concentrations of the test compound were applied sequentially on each of the different cells investigated. A steady state level of baseline current was measured for at least 6 sweeps prior to the application of the first test compound concentration.
The test compound was dissolved in DMSO to yield a master stock solution which was diluted further in DMSO to stock solutions needed for the lower concentrations. Final dilutions in extracellular buffer were prepared freshly from these stocks by a 1:1000 dilution step each before starting the experiments.
Peak current amplitudes were measured 3 ms after the ramp to +40 mV. For baseline and each concentration the peak currents of the three last sweeps before application of the next concentration were averaged. Residual currents (I/I0) were calculated for each cell as the fraction of actual average peak current and average baseline peak current. Results are presented as percent (%) inhibition (1−I/I0)*100% at 10 μM.

hERG channel, sequence (Q12809 whole entry): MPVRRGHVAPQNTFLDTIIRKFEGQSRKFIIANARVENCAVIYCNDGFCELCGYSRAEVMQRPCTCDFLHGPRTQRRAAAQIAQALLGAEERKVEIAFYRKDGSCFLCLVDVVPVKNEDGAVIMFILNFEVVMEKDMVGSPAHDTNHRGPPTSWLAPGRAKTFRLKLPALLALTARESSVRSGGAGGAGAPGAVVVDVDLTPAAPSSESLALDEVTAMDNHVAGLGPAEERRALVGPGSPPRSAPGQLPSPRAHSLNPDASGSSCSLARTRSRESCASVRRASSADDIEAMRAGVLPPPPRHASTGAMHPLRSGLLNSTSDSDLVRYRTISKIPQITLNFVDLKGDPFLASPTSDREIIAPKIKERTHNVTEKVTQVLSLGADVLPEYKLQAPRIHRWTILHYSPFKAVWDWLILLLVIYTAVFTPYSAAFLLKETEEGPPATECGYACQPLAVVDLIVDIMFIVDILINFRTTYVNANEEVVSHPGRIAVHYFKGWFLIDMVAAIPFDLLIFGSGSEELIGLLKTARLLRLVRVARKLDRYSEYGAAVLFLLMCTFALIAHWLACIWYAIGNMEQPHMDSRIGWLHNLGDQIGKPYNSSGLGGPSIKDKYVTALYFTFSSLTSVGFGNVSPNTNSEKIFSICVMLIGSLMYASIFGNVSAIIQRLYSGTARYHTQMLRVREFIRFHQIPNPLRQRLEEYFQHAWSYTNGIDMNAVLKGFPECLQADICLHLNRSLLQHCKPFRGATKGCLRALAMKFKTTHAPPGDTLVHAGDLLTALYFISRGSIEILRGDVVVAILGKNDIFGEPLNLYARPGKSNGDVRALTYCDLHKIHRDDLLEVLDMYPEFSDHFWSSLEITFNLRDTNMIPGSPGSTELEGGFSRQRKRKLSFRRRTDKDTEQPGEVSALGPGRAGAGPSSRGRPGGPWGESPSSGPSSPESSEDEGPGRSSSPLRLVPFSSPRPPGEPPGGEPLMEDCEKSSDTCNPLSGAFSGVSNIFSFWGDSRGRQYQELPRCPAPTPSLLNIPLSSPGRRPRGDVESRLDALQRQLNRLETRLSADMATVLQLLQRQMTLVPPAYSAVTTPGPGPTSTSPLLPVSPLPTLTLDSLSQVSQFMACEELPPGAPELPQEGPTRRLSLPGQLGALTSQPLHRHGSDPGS

**Q.** Which “hERG % inhibition @ 10 μM (assay 3)” value does the source give for `CO[C@H]1[C@H](C)C[C@@]2(Cc3ccc(C#N)cc3[C@]23N=C(N)N(C[C@@H]2CCO2)C3=O)C[C@@H]1C` (stereo in doubt) [Example 18] here?
**A.** 17%

**Q.** For `COC1CCC2(CC1)Cc1ccc(C#N)cc1C21N=C(N)N(CC2CCCO2)C1=O` (stereo not drawn) [Comparison example drawing 13, reference compound], which “hERG % inhibition @ 10 μM (assay 3)” value is on record?
**A.** 16%

**Q.** With `CC[C@@H]1C[C@]2(CC[C@H]1OC)Cc1ccc(C#N)cc1[C@]21N=C(N)N(Cc2ncccn2)C1=O` [Example 1] as the molecule, how does the “hERG % inhibition @ 10 μM (assay 3)” value read?
**A.** 8%

**Q.** With `CC[C@@H]1C[C@]2(CC[C@H]1OC)Cc1ccc(C#N)cc1[C@]21N=C(N)N(CC2CCOCC2)C1=O` [Example 2] as the molecule, how does the “hERG % inhibition @ 10 μM (assay 3)” value read?
**A.** 22%

**Q.** How did the “hERG % inhibition @ 10 μM (assay 3)” value turn out when `CC[C@@H]1C[C@]2(CC[C@H]1OC)Cc1ccc(C#N)cc1[C@]21N=C(N)N(CC(C)(C)F)C1=O` [Example 3] was run?
**A.** 9%

**Q.** For `CC[C@@H]1C[C@]2(CC[C@H]1OC)Cc1ccc(C#N)cc1[C@]21N=C(N)N(CC2(F)CCOCC2)C1=O` [Example 4], which “hERG % inhibition @ 10 μM (assay 3)” value is on record?
**A.** 0%

**Q.** With `CC[C@H]1C[C@@]2(CC[C@@H]1OC)Cc1ccc(C#N)cc1[C@]21N=C(N)N(C[C@H]2CCCO2)C1=O` [Example 5] as the molecule, how does the “hERG % inhibition @ 10 μM (assay 3)” value read?
**A.** 7%

**Q.** `CO[C@H]1CC[C@@]2(Cc3ccc(C#N)cc3[C@]23N=C(N)N(Cc2ncccn2)C3=O)C[C@@H]1C` [Example 6] was tested. Which “hERG % inhibition @ 10 μM (assay 3)” value did it give?
**A.** 35%

**Q.** Which “hERG % inhibition @ 10 μM (assay 3)” value does the source give for `COCCN1C(=O)[C@]2(N=C1N)c1cc(C#N)ccc1C[C@@]21CC[C@H](OC)[C@@H](C)C1` [Example 7] here?
**A.** 8%

**Q.** For `CO[C@H]1CC[C@@]2(Cc3ccc(C#N)cc3[C@]23N=C(N)N(CC2(C)COC2)C3=O)C[C@@H]1C` [Example 8], which “hERG % inhibition @ 10 μM (assay 3)” value is on record?
**A.** 16%

**Q.** For `CO[C@H]1CC[C@@]2(Cc3ccc(C#N)cc3[C@]23N=C(N)N(Cc2ccncn2)C3=O)C[C@@H]1C` [Example 9], which “hERG % inhibition @ 10 μM (assay 3)” value is on record?
**A.** 16%

**Q.** For `CO[C@H]1[C@H](C)C[C@@]2(Cc3ccc(C#N)cc3[C@]23N=C(N)N(Cc2ncc(F)cn2)C3=O)C[C@@H]1C` [Example 10], which “hERG % inhibition @ 10 μM (assay 3)” value is on record?
**A.** 38%

**Q.** With `CO[C@H]1[C@H](C)C[C@@]2(Cc3ccc(C#N)cc3[C@]23N=C(N)N(CC2(C)COC2)C3=O)C[C@@H]1C` [Example 11] as the molecule, how does the “hERG % inhibition @ 10 μM (assay 3)” value read?
**A.** 6%

**Q.** `CO[C@H]1[C@H](C)C[C@@]2(Cc3ccc(C#N)cc3[C@]23N=C(N)N(C2COC2)C3=O)C[C@@H]1C` [Example 12] was tested. Which “hERG % inhibition @ 10 μM (assay 3)” value did it give?
**A.** 11%

**Q.** For `CO[C@H]1[C@H](C)C[C@@]2(Cc3ccc(C#N)cc3[C@]23N=C(N)N(CC2COC2)C3=O)C[C@@H]1C` [Example 13], which “hERG % inhibition @ 10 μM (assay 3)” value is on record?
**A.** 18%

**Q.** `CO[C@H]1[C@H](C)C[C@@]2(Cc3ccc(C#N)cc3[C@]23N=C(N)N(C[C@H]2CCCO2)C3=O)C[C@@H]1C` [Example 14] was tested. Which “hERG % inhibition @ 10 μM (assay 3)” value did it give?
**A.** 20%

**Q.** With `CO[C@H]1[C@H](C)C[C@@]2(Cc3ccc(C#N)cc3[C@]23N=C(N)N(C[C@@H]2CCCO2)C3=O)C[C@@H]1C` [Example 15] as the molecule, how does the “hERG % inhibition @ 10 μM (assay 3)” value read?
**A.** 11%

**Q.** With `CO[C@H]1[C@H](C)C[C@@]2(Cc3ccc(C#N)cc3[C@]23N=C(N)N(CC2CCOCC2)C3=O)C[C@@H]1C` [Example 16] as the molecule, how does the “hERG % inhibition @ 10 μM (assay 3)” value read?
**A.** 6%

**Q.** Which “hERG % inhibition @ 10 μM (assay 3)” value does the source give for `CO[C@H]1[C@H](C)C[C@@]2(Cc3ccc(C#N)cc3[C@]23N=C(N)N(CC(C)(C)F)C3=O)C[C@@H]1C` [Example 17] here?
**A.** 12%

**Q.** Which “hERG % inhibition @ 10 μM (assay 3)” value does the source give for `CO[C@H]1[C@H](C)C[C@@]2(Cc3ccc(C#N)cc3[C@]23N=C(N)N(CCC2COC2)C3=O)C[C@@H]1C` [Example 19] here?
**A.** 8%

**Q.** How did the “hERG % inhibition @ 10 μM (assay 3)” value turn out when `CO[C@H]1[C@H](C)C[C@@]2(Cc3ccc(C#N)cc3[C@]23N=C(N)N(CC2(C)OCCO2)C3=O)C[C@@H]1C` [Example 20] was run?
**A.** 8%

**Q.** `CO[C@H]1[C@H](C)C[C@@]2(Cc3ccc(C#N)cc3[C@]23N=C(N)N(C[C@@H]2COCCO2)C3=O)C[C@@H]1C` [Example 21] was tested. Which “hERG % inhibition @ 10 μM (assay 3)” value did it give?
**A.** 24%

**Q.** For `CO[C@H]1[C@H](C)C[C@@]2(Cc3ccc(C#N)cc3[C@]23N=C(N)N(C[C@H]2COCCO2)C3=O)C[C@@H]1C` [Example 22], which “hERG % inhibition @ 10 μM (assay 3)” value is on record?
**A.** 9%

**Q.** Which “hERG % inhibition @ 10 μM (assay 3)” value does the source give for `CO[C@H]1[C@H](C)C[C@@]2(Cc3ccc(C#N)cc3[C@]23N=C(N)N(CC2(F)CCOCC2)C3=O)C[C@@H]1C` [Example 23] here?
**A.** 16%

**Q.** How did the “hERG % inhibition @ 10 μM (assay 3)” value turn out when `CO[C@H]1[C@H](C)C[C@@]2(Cc3ccc(C#N)cc3[C@]23N=C(N)N(Cc2ccncn2)C3=O)C[C@@H]1C` [Example 24] was run?
**A.** 23%

**Q.** Which “hERG % inhibition @ 10 μM (assay 3)” value does the source give for `CO[C@H]1[C@H](C)C[C@@]2(Cc3ccc(F)cc3[C@]23N=C(N)N(C[C@@H]2CCOC2)C3=O)C[C@@H]1C` [Example 25] here?
**A.** 10%

**Q.** Which “hERG % inhibition @ 10 μM (assay 3)” value does the source give for `CC[C@@H]1C[C@@]2(Cc3ccc(C#N)cc3[C@]23N=C(N)N(CC(C)(C)F)C3=O)C[C@H](C)[C@H]1OC` [Example 26] here?
**A.** 8%

**Q.** How did the “hERG % inhibition @ 10 μM (assay 3)” value turn out when `CO[C@H]1CC[C@@]2(Cc3ccc(C#N)cc3[C@]23N=C(N)N(CC2COCCO2)C3=O)C[C@@H]1C` (stereo partly drawn) [Example 27] was run?
**A.** 19%

**Q.** Which “hERG % inhibition @ 10 μM (assay 3)” value does the source give for `CC[C@@H]1C[C@]2(CC[C@H]1OC)Cc1ccc(C#N)cc1[C@]21N=C(N)N(C[C@H]2COCCO2)C1=O` [Example 28] here?
**A.** 9%

**Q.** With `CO[C@H]1[C@H](C)C[C@@]2(Cc3ccc(F)cc3[C@]23N=C(N)N(CC2(C)OCCO2)C3=O)C[C@@H]1C` [Example 29] as the molecule, how does the “hERG % inhibition @ 10 μM (assay 3)” value read?
**A.** 7%
